Results: patent publication US8431581B2, “Imidazopyrimidines and uses thereof” (priority 2008, dated 2013)

Tests used:
HIV WT integrase = experiment: Phenosense (PhenoScreen) assay, wild type virus; format: cell-based; conditions: Human immunodeficiency virus 1, read-out: Phenosense assay WT activity value
Excerpt: (§1) Monogram Bioscience' PhenoScreen assay allows the evaluation of integrase inhibitors for activity against a variety of HIV variants. The assay uses virus generated from 2 DNA constructs; one containing the HIV LTR, gag and pol regions, as well as a luciferase reporter gene in place of the viral envelope genes, and a second DNA construct containing the amphotrophic murine leukemia virus (A-MLV) envelope gene required to pseudotype virions and render them capable of entry into a target cell. Viruses generated using these constructs by transfection into a producer cell line such as 293T are capable of one-round of infection only. Successful integration events are directly proportional to the levels of luciferase expression 48-72 h after infection.
(§2) The viral variants chosen by Avexa Ltd. to screen their in-house integration inhibitors against consist of mutations within the viral integrase enzyme known to confer resistance to a number of known integration inhibitors published in the literature. In particular, the viral variants containing the Q148H/G140S double mutation in integrase, and the N155H/E92Q double mutation in integrase, represent two of the more common viruses identified to arise in patients that are failing treatment with Isentress (Raltegravir, MK-0518).
(§3) Both the Phenosense assay and the Enzyme assay give substantially the same activity values for any particular compound and enzyme pair. The activity of one compound in one assay can therefore be directly compared to the activity of a second compound in the other assay.

[1] = system: HIV variant T125K F121Y integrase; experiment: Phenosense (PhenoScreen) assay, T125K F121Y variant; format: cell-based; conditions: Human immunodeficiency virus 1, read-out: Phenosense assay T125K F121Y activity value
Excerpt: as §1, §2, §3

[2] = system: HIV variant Y143R integrase; experiment: Phenosense (PhenoScreen) assay, Y143R variant; format: cell-based; conditions: Human immunodeficiency virus 1, read-out: Phenosense assay Y143R activity value
Excerpt: as §1, §2, §3

[3] = system: HIV variant T661 S153Y integrase; experiment: Phenosense (PhenoScreen) assay, T661 S153Y variant; format: cell-based; conditions: Human immunodeficiency virus 1, read-out: Phenosense assay T661 S153Y activity value
Excerpt: as §1, §2, §3

[4] = system: HIV variant E92Q N155H integrase; experiment: Phenosense (PhenoScreen) assay, E92Q N155H variant; format: cell-based; conditions: Human immunodeficiency virus 1, read-out: Phenosense assay E92Q N155H activity value
Excerpt: as §1, §2, §3

HIV integrase WT = biological target: T1, HIV integrase WT (Human immunodeficiency virus type 1 group M subtype B, UniProt P12497); experiment: Strand transfer assay (enzyme assay), wild type; format: biochemical, HIV-1
T1 construct: The integrase coding region was then subject to PCR and cloned into a bacterial expression vector; made in house
Excerpt: HIV integrase was mutated within a shuttle vector (pGEMNLHE) containing the majority of the HIV-1 gag and pol sequence using site directed mutagenesis to generate integrase sequences that have been published as conferring resistance to published integrase inhibitors. These include, but are not limited to, mutations such as Q148K, Q148H/G140S and N155H/E92Q. The integrase coding region was then subject to PCR and cloned into a bacterial expression vector. The specific introduction of desired mutation(s) was confirmed by sequence analysis. Proteins were expressed, purified and used in strand transfer assays.
A strand transfer assay procedure similar to that published (Ovenden et al. Phytochemistry. 2004 December; 65(24):3255-9.) is used. Briefly, 400 ng of the enzyme, wild type or drug resistant mutant, is mixed with the compound to be tested and incubated with 30 nM substrate DNA. The substrate DNA is designed to mimic HIV DNA termini that has undergone 3′ end processing, and consists of the annealed U5 LTR sequence oligonucleotides tagged with Digoxigenin (DIG; 5′-[…]-DIG-3′) or biotin (5′-Bio-[…]-3′) so that each substrate has either a DIG or Bio tag on opposite strands. Reactions are carried out for 1 hr at 37° C. Products generated as a result of strand transfer activity are bound to streptavidin plates and detected using anti-DIG-alkaline phosphatase conjugate and p-nitro phenyl phosphate substrate.
as §3

[5] = system: HIV variant G140S Q148H integrase; experiment: Phenosense (PhenoScreen) assay, G140S Q148H variant; format: cell-based; conditions: Human immunodeficiency virus 1, read-out: Phenosense assay G140S Q148H activity value
Excerpt: as §1, §2, §3

[6] = system: HIV-1 reporter virus, wild-type (WT) integrase; experiment: Luciferase reporter virus infectivity assay, WT; format: cell-based; conditions: Human immunodeficiency virus 1, HEK-293T, 48 h, read-out: Luciferase assay results WT (EC50)
Excerpt: (§4) Infectivity assays using reporter viruses derived from lentiviral vectors capable of a single round of infection were used to determine the activity (EC50) of compounds. The DNA used to generate viruses for infection was the full-length HIV-1 genome which had been envelope-deleted. In addition, a reporter gene (the firefly luciferase gene from Photinus pyralis) was cloned into the nef region of the HIV backbone for ease of assay readout. […]. Culture supernatants containing VSV-G pseudotyped virions were harvested 64 h post transfection, clarified by centrifugation to remove cell debris, and frozen at −70° C. until use.
(§5) HIV integrase was mutated within a shuttle vector (pGEM) containing the majority of the HIV-1 gag and pol sequence using site-directed mutagenesis to generate sequences that are known to confer resistance to published integrase inhibitors. These include but are not limited to mutations such as Q148H/G140S (in tables 2 and 3 # QHGS), N155H/E92Q (in table 2 # NHEQ), F121Y/T124K (in table 2 FYTK), Y143R (in table 2 # Y143R) and the triple mutant Q148K/G140A/E138A. (in table 2 # QKGAEA). The mutated integrase coding region within the shuttle vector was sequence verified, and then exchanged for the wild-type (WT) coding sequence in the reporter virus DNA backbone.
(§6) 293T cells were plated out at 12000 cells per well in CellView 96-well cell culture plates (Invitrogen) 16 h prior to compound addition. Compounds were preincubated with cells for 4 h at 37° C. prior to the addition of virus sufficient to generate approximately 10000 Luciferase light units (as measured by the Victor Wallace luminometer) upon assaying using the Bright-Glo™ reagent (Promega) according to the manufacturer's instructions at 48 h post infection.

[7] = system: HIV-1 reporter virus, integrase Q148H/G140S (QHGS); experiment: Luciferase reporter virus infectivity assay, QHGS mutant; format: cell-based; conditions: Human immunodeficiency virus 1, HEK-293T, read-out: Luciferase assay results QHGS (EC50)
Excerpt: as §4, §5, §6

[8] = system: HIV-1 reporter virus, integrase N155H/E92Q (NHEQ); experiment: Luciferase reporter virus infectivity assay, NHEQ mutant; format: cell-based; conditions: Human immunodeficiency virus 1, HEK-293T, read-out: Luciferase assay results NHEQ (EC50)
Excerpt: as §4, §5, §6

Compound	EC50 (HIV WT integrase) [nM]	EC50 [1] [nM]	EC50 [2] [nM]	EC50 [3] [nM]	EC50 [4] [nM]	IC50 (HIV integrase WT) [nM]	EC50 [5] [nM]	EC50 [6] [nM]	EC50 [7] [nM]	EC50 [8] [nM]
O=C(Cn1ccn2c(=O)c(O)c(-c3ncc(Cc4ccc(F)cc4)o3)nc12)N1CCCCC1	1 to 100	100 to 1000	100 to 1000	1 to 100	100 to 1000	1 to 100	1000 to 10000			
Cn1ccn2c(=O)c(O)c(C(=O)NCc3ccc(F)cc3)nc12	100 to 1000	> 10000	100 to 1000	1000 to 10000	> 10000	100 to 1000	> 10000			
C[C@H]1CN(C(=O)Cn2ccn3c(=O)c(O)c(-c4ncc(Cc5ccc(F)c(Cl)c5)s4)nc23)C[C@H](C)O1								100 to 1000	100 to 1000	100 to 1000
CN1CCN(C(=O)Cn2ccn3c(=O)c(O)c(-c4ncc(Cc5ccc(F)cc5)s4)nc23)CC1								100 to 1000	> 1000	100 to 1000
C[C@H]1CN(C(=O)Cn2ccn3c(=O)c(O)c(-c4ncc(Cc5ccc(F)cc5)s4)nc23)C[C@H](C)O1 [drawing 254]								1 to 100	100 to 1000	100 to 1000
